In data set [1] the test system is RBC. Kind of data set: RBC lysis in vitro assay. The class given is cell-based.
Data set [2] in a line: Microsomal. Conditions: result in words. In kind it is in vitro ADME, human.
For data set [3], the system named is MOLT4 cells. The data set can be described thus: Quantitative MS degradation proteomics in MOLT4 cells. The conditions noted are these: 6 h treatment.
Data set [4] deals with HiBiT-tagged v3 EML4-ALK (WT and clinically relevant mutations). The data set can be described thus: EML4-ALK HiBiT degradation assay, general / clinically relevant mutations. The conditions noted are these: result in words.
Data set [5] has as its system HepG2 cell line. Kind of data set: LipidTOX Red phospholipidosis imaging assay. In kind it is cell-based.
In data set [6] the test system is HepG2 cell line. Kind of data set: HepG2 viability. The class given is cell-based.
Data set [7] has as its target HiBiT-tagged v3 EML4-ALK wild-type (WT) (Homo sapiens, UniProt Q9HC35+Q9UM73). The data set can be described thus: EML4-ALK HiBiT degradation assay, WT. Conditions: result in words.
Data set [8] concerns the target HiBiT-tagged v3 EML4-ALK G1202R (Homo sapiens, UniProt Q9HC35+Q9UM73, G1202R). The data set can be described thus: EML4-ALK HiBiT degradation assay, G1202R. The conditions noted are these: Ba/F3, result in words. Background: HiBiT is a short tag that completes a luciferase, so light tracks the accessible tagged protein.
Data set [9] relates to mouse red blood cells (RBCs). Kind of data set: In vitro hemolysis assay, mouse RBCs. The class given is cell-based.
For data set [10], the system named is human red blood cells (RBCs). Kind of data set: In vitro hemolysis assay, human RBCs. The class given is cell-based.
The nature of data set [11]: FeSSIF solubility. In kind it is physicochemical. Conditions: result in words.
Data set [12] can be described thus: Mouse pharmacokinetics, oral and intravenous dosing. The conditions noted are these: mice, PK study with oral and iv dosing.

Results on 9 compounds are retold here after article PMC11827123 (Journal of medicinal chemistry, 2023).

HiBiT-tagged v3 EML4-ALK G1202R, sequence (Q9UM73 1058-1620 G1202R limits assumed, one chain of several): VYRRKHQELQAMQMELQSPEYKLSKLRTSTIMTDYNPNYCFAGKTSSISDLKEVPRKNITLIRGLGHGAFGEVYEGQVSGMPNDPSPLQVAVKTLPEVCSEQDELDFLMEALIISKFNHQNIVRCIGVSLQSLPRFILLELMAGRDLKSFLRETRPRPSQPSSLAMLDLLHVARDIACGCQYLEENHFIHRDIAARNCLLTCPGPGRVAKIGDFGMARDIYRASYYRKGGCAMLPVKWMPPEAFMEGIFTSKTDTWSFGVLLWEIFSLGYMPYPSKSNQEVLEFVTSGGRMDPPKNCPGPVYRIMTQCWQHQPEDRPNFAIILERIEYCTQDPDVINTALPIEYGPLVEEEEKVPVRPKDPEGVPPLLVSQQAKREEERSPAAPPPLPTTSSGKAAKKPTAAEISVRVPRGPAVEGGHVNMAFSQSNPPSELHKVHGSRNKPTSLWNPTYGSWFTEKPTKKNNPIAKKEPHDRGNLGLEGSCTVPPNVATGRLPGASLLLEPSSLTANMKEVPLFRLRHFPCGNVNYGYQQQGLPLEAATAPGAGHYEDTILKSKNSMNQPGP
HiBiT-tagged v3 EML4-ALK wild-type (WT), sequence (Q9UM73 1058-1620 limits assumed, one chain of several): as the sequence (Q9UM73 1058-1620 G1202R limits assumed, one chain of several) above, with R145G counted along it

Take `COc1cc(C2CCN(CCCC#Cc3cccc4c3CN(C3CCC(=O)NC3=O)C4=O)CC2)c(C)cc1Nc1ncc(Cl)c(Nc2ccccc2S(=O)(=O)C(C)C)n1` (centres unmarked) [CPD-1131]: the “RBC lysis in vitro” value in data set [1] was “RBC lysis was avoided”. Further, the “metabolic / microsomal stability” value in data set [2] is listed as “good microsomal stability”. For the same compound, the “proteins degraded to any significant extent” value in data set [3] was “five”.

With `COc1cc(C2CCN(CC3CN(c4ccc5c(c4)C(=O)N(C4CCC(=O)N(C)C4=O)C5=O)C3)CC2)c(C)cc1Nc1ncc(Cl)c(Nc2ccccc2S(=O)(=O)C(C)C)n1` (centres unmarked) [CPD-1224NC, 5-(3-((4-(4-((5-Chloro-4-((2-(isopropylsulfonyl)-phenyl)amino)pyrimidin-2-yl)amino)-5-methoxy-2-methylphenyl)piperidin-1-yl)methyl)azetidin-1-yl)-2-(1-methyl-2,6-dioxopiperidin-3-yl)isoindoline-1,3-dione], the “EML4-ALK degradation potency / efficacy (general, clinical mutations)” value in data set [4] is reported as “retains weak degradation activity”.

With `COc1cc(CCNCCCCCC#Cc2cccc3c2C(=O)N(C2CCC(=O)NC2=O)C3=O)c(C)cc1Nc1ncc(Cl)c(Nc2ccccc2S(=O)(=O)C(C)C)n1` (centres unmarked) [CPD-198, 4-(7-((4-((5-Chloro-4-((2-(isopropylsulfonyl)-phenyl)amino)pyrimidin-2-yl)amino)-5-methoxy-2-methylphenethyl)amino)hept-1-yn-1-yl)-2-(2,6-dioxopiperidin-3-yl)isoindoline-1,3-dione], in [1], the “RBC lysis in vitro” value is “caused RBC lysis”.

In the case of `COc1cc(C2CCN(CC3CN(c4ccc5c(c4)C(=O)N(C4CCC(=O)NC4=O)C5=O)C3)CC2)c(C)cc1Nc1ncc(Cl)c(Nc2ccccc2S(=O)(=O)C(C)C)n1` (centres unmarked) [CPD-1224, 5-{3-[(4-{4-[(5-Chloro-4-{[2-(propane-2-sulfonyl)phenyl]amino}pyrimidin-2-yl)amino]-5-methoxy-2-methylphenyl}piperidin-1-yl)methyl]azetidin-1-yl}−2-(2,6-dioxopiperidin-3-yl)-2,3-dihydro-1H-isoindole-1,3-dione], the “RBC lysis in vitro” value in [1] was “did not possess RBC lysis”. Also, the “metabolic / microsomal stability” value in [2] is on record as “improved metabolic stability relative to the isoindolinone congener CPD-1793”. In data set [5], the “phospholipidosis (phospholipid accumulation)” value is recorded as “did not possess these effects”. The cytotoxicity entry in data set [6] is given as “did not possess these effects”.

As to `Cc1cc(Nc2ncc(Cl)c(Nc3ccccc3S(=O)(=O)C(C)C)n2)c(OC(C)C)cc1C1CCN(CCOCCOCCNC(=O)CNc2cccc3c2C(=O)N(C2CCC(=O)NC2=O)C3=O)CC1` (centres unmarked) [TL13–112], the “shift between cellular ALK occupancy (NanoBRET) and degradation potency, WT” value in data set [7] is listed as “only a small shift”. Moreover, in data set [8], the “degradation activity for G1202R mutation” value is listed as “low degradation activity”.

As for `Cc1cc(Nc2ncc(Cl)c(Nc3ccccc3S(=O)(=O)C(C)C)n2)c(OC(C)C)cc1C1CCNCC1` [ceritinib, reference compound], in data set [5], the “phospholipidosis (phospholipid accumulation)” value is recorded as “confirmed the phospholipidosis”. Further, the cytotoxicity entry in [6] is on record as “cytotoxicity”.

For `COc1cc(CCNCCCCCC#Cc2cccc3c2CN(C2CCC(=O)NC2=O)C3=O)c(C)cc1Nc1ncc(Cl)c(Nc2ccccc2S(=O)(=O)C(C)C)n1` (centres unmarked) [CPD-985, 3-(4-(7-((4-((5-Chloro-4-((2-(isopropylsulfonyl)-phenyl)amino)pyrimidin-2-yl)amino)-5-methoxy-2-methylphenethyl)amino)hept-1-yn-1-yl)-1-oxoisoindolin-2-yl)piperidine-2,6-dione], the in vitro hemolysis entry in [9] and in data set [10] was “confirmed” in each case. Besides, the “metabolic / microsomal stability” value in data set [2] is given as “slightly improved metabolic stability relative to CPD-198”. The “solubility in fed state simulated intestinal fluid (FeSSIF)” value in data set [11] was “good solubility”. Besides, in [12], the hemolysis in vivo result is listed as “hemolysis was also observed”.

Turning to `COc1cc(C2CCN(CCCCCC#Cc3cccc4c3CN(C3CCC(=O)NC3=O)C4=O)CC2)c(C)cc1Nc1ncc(Cl)c(Nc2ccccc2S(=O)(=O)C(C)C)n1` (centres unmarked) [CPD-1108, 3-(4-(7-(4-(4-((5-Chloro-4-((2-(isopropylsulfonyl)phenyl)amino)pyrimidin-2-yl)amino)-5-methoxy-2-methylphenyl)piperidin-1-yl)hept-1-yn-1-yl)-1-oxoisoindolin-2-yl)piperidine-2,6-dione], the “RBC lysis in vitro” value in [1] is recorded as “weak positive”.

On to `CCc1cc2c(cc1N1CCN(CC3CN(c4ccc5c(c4)C(=O)N(C4CCC(=O)NC4=O)C5=O)C3)CC1)C(C)(C)c1[nH]c3cc(C#N)ccc3c1C2=O` (centres unmarked) [CPD-1403, 8-(4-((1-(2-(2,6-Dioxopiperidin-3-yl)-1,3-dioxoisoindolin-5-yl)azetidin-3-yl)methyl)piperazin-1-yl)-9-ethyl-6,6-dimethyl-11-oxo-6,11-dihydro-5H-benzo[b]carbazole-3-carbonitrile], for which, in [2], the “metabolic / microsomal stability” value is “high microsomal stability”.
